The values below come from patent US11208443B2, “NAF-1 derived peptides and uses thereof” (YISSUM RESEARCH DEVELOPMENT COMPANY OF THE HEBREW …, priority 2017, dated 2021).

Where two headings read alike, the source gives them in different places. Non-standard residues stand in square brackets, D forms with d. Residues, ends and D or L forms follow the SMILES beside them. No end group written: not given here. PEG8 = NCCOCCOCCOCCOCCOCCOCCOCCOCCC(=O)O

The test system of one data set is chymotrypsin. As to the kind of experiment: Stability against protease cleavage, HPLC. Format: in vitro ADME. On the procedure: Stability of the D-PEP, and 3D-PEP, analogs, and of PEG-N-3D-PEP and PEG-C-3D-PEP conjugates against protease cleavage (chymotrypsin and trypsin) was tested and compared to stability of the native peptide having SEQ ID NO: 1. To peptides' stocks of 430 μl in concentration of 450 μM were added 0.001 mg/ml protease (Trypsin or Chymotrypsin) and incubated in room temperature (22° C.). Samples of 40 μl were taken before adding the protease and after every 15 min in the first hour, and after 2 […] and 24 h. To stop the proteolysis samples were added 7 μl of 2% TFA in TDW. The samples were added 60 μl TDW and were analyzed using analytical HPLC.

The subject of data set [1] is MCF-10A cells.
Description: The ability of the peptide having the sequence SEQ ID NO: 1 to penetrate into the cells and its effect on cells' viability was tested as following. Green fluorescein was conjugated to the peptide having SEQ ID NO: 1 (the labeled peptide is referred as PEP-FL). Then, the fluorescent peptide was incubated with normal, non-tumor epithelial cell line (MCF-10A) and malignant (MDA-MB-231) breast epithelial cells. The mitochondria of the cells were labeled red with RPA and the cells' nuclei were labeled with Hoechst 33342 (blue dye).
Data set [2] can be described thus: Cell viability of malignant cells (Examples 1, 6, 10). Format: cell-based, human. The text has this:
(§1) However, substitution of several amino acids to Ala drastically diminished the toxicity of these analogs.

In data set [3] the test system is MCF-10A cells. The data set can be described thus: Penetration of fluorescein-labeled peptide into non-malignant cells. Format: cell-based. Particulars: FIG. 2. The protocol:
(§2) To elucidate the site of action of the peptide having SEQ ID NO: 1, the peptide was labeled as described in Example 1 and incubated with normal and malignant cells (MCF-10A and MDA-MB-231 cells, respectively). […] Without being bound to any specific theory it was estimates that the peptide affects or disrupts the structure of the mitochondrial and nuclear membrane.
(§3) In addition to D-PEP peptide (SEQ ID NO:3), in which all amino acids of SEQ ID NO: 1 were substituted to D-amino acids, a peptide comprising only 3 D-amino acids was produced and has the sequence FLGVLALLGyLAVRPfLPKkKQQK (SEQ ID NO: 2, referred as 3D-PEP). This peptide, as well as D-PEP, both marked with Fluorescein, were tested for their ability to penetrate into non-tumor MCF-10A and malignant MDA-MB-231 and for their toxicity, as described in Example 3. Briefly, cells were incubated with 10 μM of each sample of the peptides for 3 h and then intensively washed. Cell fluorescence was observed by semi-confocal microscope. For cell viability measurement, cells were incubated with 10 μM or 5 μM of each one of the peptides for 5 days and then cell viability was assayed using Alamar blue assay.

The test system of data set [4] is MCF-10A cells. As to the kind of experiment: Effect of labeled peptide on nuclei, confocal imaging. Format: cell-based. The note with it: FIG. 6C. The protocol: as §2
Data set [5] relates to MDA-MB-231 cells. The data set can be described thus: Effect of labeled peptide on mitochondria and nuclei, confocal imaging. Format: cell-based, human. The protocol:
as §2

For data set [6], the system named is MDA-MB-231 cells. The data set can be described thus: Penetration of fluorescein-labeled peptide into malignant cells. The note with it: FIG. 2, FIG. 6A. Format: cell-based, human. The protocol:
as §2, §3

For data set [7], the system named is MDA-MB-231 cells. As to the kind of experiment: Cell viability of malignant cells (Examples 1, 6, 10). Format: cell-based, human.
From the text: as §1

In the case of `CC(C)C[C@H](NC(=O)[C@H](C)NC(=O)[C@H](CC(C)C)NC(=O)[C@@H](NC(=O)CNC(=O)[C@H](CC(C)C)NC(=O)[C@@H](N)Cc1ccccc1)C(C)C)C(=O)N[C@@H](CC(C)C)C(=O)NCC(=O)N[C@H](Cc1ccc(O)cc1)C(=O)N[C@@H](CC(C)C)C(=O)N[C@@H](C)C(=O)N[C@H](C(=O)N[C@@H](CCCNC(=N)N)C(=O)N1CCC[C@H]1C(=O)N[C@H](Cc1ccccc1)C(=O)N[C@@H](CC(C)C)C(=O)N1CCC[C@H]1C(=O)N[C@@H](CCCCN)C(=O)N[C@H](CCCCN)C(=O)N[C@@H](CCCCN)C(=O)N[C@@H](CCC(N)=O)C(=O)N[C@@H](CCC(N)=O)C(=O)N[C@@H](CCCCN)C(=O)O)C(C)C` [3D-PEP, FLGVLALLGyLAVRPfLPKkKQQK] (H-FLGVLALLG[dY]LAVRP[dF]LPK[dK]KQQK-OH; N-terminus and C-terminus assumed), the “half life against chymotrypsin compared to native peptide” value in the data set on chymotrypsin was “much longer half life”.
For `CC(C)C[C@H](NC(=O)[C@H](C)NC(=O)[C@H](CC(C)C)NC(=O)[C@@H](NC(=O)CNC(=O)[C@H](CC(C)C)NC(=O)[C@H](Cc1ccccc1)NC(=O)CCOCCOCCOCCOCCOCCOCCOCCOCCN)C(C)C)C(=O)N[C@@H](CC(C)C)C(=O)NCC(=O)N[C@H](Cc1ccc(O)cc1)C(=O)N[C@@H](CC(C)C)C(=O)N[C@@H](C)C(=O)N[C@H](C(=O)N[C@@H](CCCNC(=N)N)C(=O)N1CCC[C@H]1C(=O)N[C@H](Cc1ccccc1)C(=O)N[C@@H](CC(C)C)C(=O)N1CCC[C@H]1C(=O)N[C@@H](CCCCN)C(=O)N[C@H](CCCCN)C(=O)N[C@@H](CCCCN)C(=O)N[C@@H](CCC(N)=O)C(=O)N[C@@H](CCC(N)=O)C(=O)N[C@@H](CCCCN)C(N)=O)C(C)C` [PEG-N-3D-PEP] (H-[PEG8]FLGVLALLG[dY]LAVRP[dF]LPK[dK]KQQK-NH2; C-terminus assumed), the “effect on viability of normal cells” value in the data set on MCF-10A cells [1] is reported as “much weaker effect”. Moreover, the cytotoxicity in data set [2] was around 80%.
As to “PEP-FL: Green fluorescein was conjugated to the peptide having SEQ ID NO: 1 (FLGVLALLGYLAVRPFLPKKKQQK; also: green fluorescein conjugated, site not given here)”, in the data set with MCF-10A cells [3], the “uptake of fluorescent peptide by normal cells” value is reported as “not by normal cells”. In addition, the “effect on nuclei of normal cells” value with MCF-10A cells [4] is “no serious damage”. Moreover, in the data set with MDA-MB-231 cells [5] (12 hours of incubation, FIG. 6C), the “effect on nuclei of malignant cells” value is recorded as “completely disappeared”. The “effect on mitochondria of malignant cells” value in the data set with MDA-MB-231 cells [5] (time after peptide addition, FIG. 6B) is “disappeared within three hours”. In addition, the “uptake of fluorescent peptide by malignant cells” value with MDA-MB-231 cells [6] is “preferentially up-taken by the cancer MDA-MB-231 cells”.
On to `CC(C)C[C@H](NC(=O)[C@H](C)NC(=O)[C@H](C)NC(=O)[C@@H](NC(=O)CNC(=O)[C@H](C)NC(=O)[C@H](C)N)C(C)C)C(=O)N[C@@H](CC(C)C)C(=O)NCC(=O)N[C@@H](Cc1ccc(O)cc1)C(=O)N[C@@H](CC(C)C)C(=O)N[C@@H](C)C(=O)N[C@H](C(=O)N[C@@H](CCCNC(=N)N)C(=O)N1CCC[C@H]1C(=O)N[C@@H](Cc1ccccc1)C(=O)N[C@@H](CC(C)C)C(=O)N1CCC[C@H]1C(=O)N[C@@H](CCCCN)C(=O)N[C@@H](CCCCN)C(=O)N[C@@H](CCCCN)C(=O)N[C@@H](CCC(N)=O)C(=O)N[C@@H](CCC(N)=O)C(=O)N[C@@H](CCCCN)C(=O)O)C(C)C` [PEP-F44A-L45A-L48A] (H-AAGVAALLGYLAVRPFLPKKKQQK-OH; N-terminus and C-terminus assumed), for which, in the data set with MDA-MB-231 cells [7], the “cytotoxic activity of alanine analogs” value is on record as “completely lost their cytotoxic activity”.
`CC(C)C[C@H](NC(=O)[C@H](C)NC(=O)[C@H](C)NC(=O)[C@H](C)NC(=O)[C@@H](NC(=O)CNC(=O)[C@H](CC(C)C)NC(=O)[C@@H](N)Cc1ccccc1)C(C)C)C(=O)NCC(=O)N[C@@H](Cc1ccc(O)cc1)C(=O)N[C@@H](CC(C)C)C(=O)N[C@@H](C)C(=O)N[C@H](C(=O)N[C@@H](CCCNC(=N)N)C(=O)N1CCC[C@H]1C(=O)N[C@@H](Cc1ccccc1)C(=O)N[C@@H](CC(C)C)C(=O)N1CCC[C@H]1C(=O)N[C@@H](CCCCN)C(=O)N[C@@H](CCCCN)C(=O)N[C@@H](CCCCN)C(=O)N[C@@H](CCC(N)=O)C(=O)N[C@@H](CCC(N)=O)C(=O)N[C@@H](CCCCN)C(=O)O)C(C)C` [PEP-L48A-L50A] (H-FLGVAAALGYLAVRPFLPKKKQQK-OH; N-terminus and C-terminus assumed): in the data set on MDA-MB-231 cells [7], the “cytotoxic activity of alanine analogs” value was “completely lost their cytotoxic activity”.
On to `CC(C)C[C@H](NC(=O)[C@H](C)NC(=O)[C@H](CC(C)C)NC(=O)[C@@H](NC(=O)CNC(=O)[C@H](C)NC(=O)[C@H](C)N)C(C)C)C(=O)N[C@@H](CC(C)C)C(=O)NCC(=O)N[C@@H](Cc1ccc(O)cc1)C(=O)N[C@@H](CC(C)C)C(=O)N[C@@H](C)C(=O)N[C@H](C(=O)N[C@@H](CCCNC(=N)N)C(=O)N1CCC[C@H]1C(=O)N[C@@H](Cc1ccccc1)C(=O)N[C@@H](CC(C)C)C(=O)N1CCC[C@H]1C(=O)N[C@@H](CCCCN)C(=O)N[C@@H](CCCCN)C(=O)N[C@@H](CCCCN)C(=O)N[C@@H](CCC(N)=O)C(=O)N[C@@H](CCC(N)=O)C(=O)N[C@@H](CCCCN)C(=O)O)C(C)C` [PEP-F44A-L45A] (H-AAGVLALLGYLAVRPFLPKKKQQK-OH; N-terminus and C-terminus assumed), for which, in the data set with MDA-MB-231 cells [7] (MDA-MB-231, FIG. 18), the “cytotoxic activity of alanine analogs” value was “completely lost their cytotoxic activity”.
For `CC(C)C[C@H](NC(=O)[C@H](C)NC(=O)[C@H](CC(C)C)NC(=O)[C@@H](NC(=O)CNC(=O)[C@H](CC(C)C)NC(=O)[C@@H](N)Cc1ccccc1)C(C)C)C(=O)N[C@@H](CC(C)C)C(=O)NCC(=O)N[C@H](Cc1ccc(O)cc1)C(=O)N[C@@H](CC(C)C)C(=O)N[C@@H](C)C(=O)N[C@H](C(=O)N[C@@H](CCCNC(=N)N)C(=O)N1CCC[C@H]1C(=O)N[C@H](Cc1ccccc1)C(=O)N[C@@H](CC(C)C)C(=O)N1CCC[C@H]1C(=O)N[C@@H](CCCCN)C(=O)N[C@H](CCCCN)C(=O)N[C@@H](CCCCN)C(=O)N[C@@H](CCC(N)=O)C(=O)N[C@@H](CCC(N)=O)C(=O)N[C@@H](CCCCN)C(=O)NCCOCCOCCOCCOCCOCCOCCOCCOCCC(N)=O)C(C)C` [PEG-C-3D-PEP] (H-FLGVLALLG[dY]LAVRP[dF]LPK[dK]KQQK[PEG8]-NH2; N-terminus assumed), the “effect on viability of normal cells” value in the data set with MCF-10A cells [1] was “much weaker effect”. The molecule also registered a cytotoxicity in data set [2] of around 70%.
